Results: ChEMBL document CHEMBL1201862, “PubChem BioAssay data set” (2004)
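Each compound was tested at five concentrations against cells in 96-well plates for 48 hours. Here, GI50 denotes the concentration required for 50% inhibition of growth.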 Calls of active or inactive are those of the source. Cut-off read from the data, not from the text of the source: active = GI50 up to about 1.1 µM and inactive = higher.

Experiments:
Assay in all cases: NCI-60 cell line screen, 48 h
MOLT-4 = system: MOLT-4
RXF 393 = system: RXF 393
SK-MEL-2 = system: SK-MEL-2
NCI-H23 = system: NCI-H23
A498 = system: A498
MDA-MB-435 = system: MDA-MB-435
Hs-578T = system: Hs-578T
SK-OV-3 = system: SK-OV-3
SK-MEL-28 = system: SK-MEL-28
KM12 = system: KM12
SK-MEL-5 = system: SK-MEL-5
IGROV-1 = system: IGROV-1
HCC 2998 = system: HCC 2998
SF-295 = system: SF-295
HCT-116 = system: HCT-116
CAKI-1 = system: CAKI-1
SW-620 = system: SW-620
HT-29 = system: HT-29
M14 = system: M14
HCT-15 = system: HCT-15
A549 = system: A549
NCI-H226 = system: NCI-H226
U-251 = system: U-251
OVCAR-3 = system: OVCAR-3
K562 = system: K562
Malme-3M = system: Malme-3M
UACC-257 = system: UACC-257
MDA-MB-231 = system: MDA-MB-231
TK-10 = system: TK-10
MCF7 = system: MCF7
DU-145 = system: DU-145
NCI-H522 = system: NCI-H522
786-0 = system: 786-0
NCI-H460 = system: NCI-H460
HOP-62 = system: HOP-62
SF-539 = system: SF-539
NCI/ADR-RES = system: NCI/ADR-RES
OVCAR-4 = system: OVCAR-4
PC-3 = system: PC-3
OVCAR-5 = system: OVCAR-5
SF-268 = system: SF-268
SNB-19 = system: SNB-19
SN12C = system: SN12C
HL-60 = system: HL-60
COLO 205 = system: COLO 205
RPMI-8226 = system: RPMI-8226
SNB-75 = system: SNB-75
BT-549 = system: BT-549
HOP-92 = system: HOP-92
UO-31 = system: UO-31
EKVX = system: EKVX
MDA-N = system: MDA-N
OVCAR-8 = system: OVCAR-8
CCRF-CEM = system: CCRF-CEM
T47D = system: T47D
ACHN = system: ACHN
LOX IMVI = system: LOX IMVI
UACC-62 = system: UACC-62
SR = system: SR

Measured: GI50

COc1ccc(C(F)(F)F)cc1NC(=O)O/N=C(/Cl)C(C)C
5.18 µM: HCT-15
inactive: MOLT-4 2.05 µM | RXF 393 19.6 µM | SK-MEL-2 18.8 µM | NCI-H23 19.7 µM | A498 28.9 µM | MDA-MB-435 20.8 µM | Hs-578T 30.4 µM | SK-OV-3 > 47.5 µM | SK-MEL-28 21.4 µM | KM12 26.3 µM | SK-MEL-5 10.7 µM | IGROV-1 17.9 µM | HCC 2998 19.9 µM | SF-295 > 47.1 µM | HCT-116 16.4 µM | CAKI-1 1.77 µM | SW-620 3.33 µM | HT-29 23.9 µM | M14 16.9 µM | A549 20.8 µM | NCI-H226 17.7 µM | U-251 26.4 µM | OVCAR-3 19.3 µM | K562 1.91 µM | Malme-3M 9.62 µM | UACC-257 19.7 µM | MDA-MB-231 19.4 µM | TK-10 15.1 µM | MCF7 21.2 µM | DU-145 19.2 µM | NCI-H522 2.26 µM | 786-0 16.9 µM | NCI-H460 37.6 µM | HOP-62 21.6 µM | SF-539 18.3 µM | NCI/ADR-RES 23.6 µM | OVCAR-4 19.1 µM | PC-3 18.8 µM | OVCAR-5 20.6 µM | SF-268 23.8 µM | SNB-19 18.7 µM | SN12C 16.2 µM | HL-60 2.76 µM | COLO 205 2.03 µM | RPMI-8226 1.71 µM | SNB-75 16.8 µM | BT-549 20.7 µM | HOP-92 7.33 µM | UO-31 18.5 µM | EKVX 17.7 µM | MDA-N 16.3 µM | OVCAR-8 21.9 µM | CCRF-CEM 2.24 µM | T47D 20 µM | ACHN 10.5 µM | LOX IMVI 5.27 µM | UACC-62 18.5 µM

CCOC(=O)CC(=O)Nc1cccc2nc[nH]c12
active: Hs-578T 0.267 µM | SNB-75 0.294 µM
inactive: MOLT-4 > 100 µM | RXF 393 > 100 µM | SK-MEL-2 > 100 µM | NCI-H23 > 100 µM | A498 > 100 µM | MDA-MB-435 > 100 µM | SK-OV-3 > 100 µM | SK-MEL-28 > 100 µM | KM12 51.8 µM | SK-MEL-5 > 100 µM | IGROV-1 > 100 µM | SF-295 > 100 µM | HCT-116 > 100 µM | CAKI-1 > 100 µM | SW-620 > 100 µM | HT-29 > 100 µM | M14 > 100 µM | SR > 100 µM | A549 > 100 µM | NCI-H226 > 100 µM | U-251 > 100 µM | OVCAR-3 > 100 µM | K562 > 100 µM | Malme-3M > 100 µM | UACC-257 > 100 µM | MDA-MB-231 > 100 µM | MCF7 > 100 µM | DU-145 > 100 µM | 786-0 > 100 µM | NCI-H460 > 100 µM | HOP-62 > 100 µM | SF-539 > 100 µM | NCI/ADR-RES > 100 µM | OVCAR-4 > 100 µM | PC-3 > 100 µM | OVCAR-5 > 100 µM | SF-268 98.2 µM | SNB-19 > 100 µM | SN12C > 100 µM | HL-60 > 100 µM | COLO 205 > 100 µM | RPMI-8226 > 100 µM | BT-549 > 100 µM | HOP-92 > 100 µM | UO-31 > 100 µM | EKVX > 100 µM | MDA-N > 100 µM | OVCAR-8 > 100 µM | CCRF-CEM > 100 µM | T47D > 100 µM | ACHN > 100 µM | UACC-62 > 100 µM
> 100 µM: HCT-15
